Measured values published in paper PMC9712021 (Advances in Pharmacological and Pharmaceutical Sciences, 2022).

Experiments:
[1] = tested on: S. cerevisiae EG103 (SODWT); assay: S. cerevisiae central disc test, oxidative damage, strain SODWT; assay type: cell-based, Saccharomyces cerevisiae; conditions: 10 mM, positive control
Description: (§1) The central disc test was done according to the method presented by Islam et al.. Superoxide dismutase (CuZnSOD-Sod1) is a cytosolic enzyme that is faulty in strain EG118, whereas mitochondrial SOD is faulty in strain EG110 (MnSOD-Sod2). The strain EG133 has both Sod1 and Sod2 defects, while EG223 has a cytosolic catalase deficiency (Cat1). While EG103 is a competent strain that is identical to the wild-type (SODWT), EG is a dual isogenic strain for the Sod1 and Cat1 genes.

[2] = tested on: S. cerevisiae EG118 (Sod1∆); assay: S. cerevisiae central disc test, oxidative damage, strain Sod1∆; assay type: cell-based, Saccharomyces cerevisiae; conditions: 10 mM, positive control
Description: as §1

[3] = tested on: S. cerevisiae EG110 (Sod2∆); assay: S. cerevisiae central disc test, oxidative damage, strain Sod2∆; assay type: cell-based, Saccharomyces cerevisiae; conditions: 10 mM, positive control
Description: as §1

[4] = tested on: S. cerevisiae EG133 (Sod1∆Sod2∆); assay: S. cerevisiae central disc test, oxidative damage, strain Sod1∆Sod2∆; assay type: cell-based, Saccharomyces cerevisiae; conditions: 10 mM, positive control
Description: as §1

[5] = tested on: S. cerevisiae EG223 (Cat1∆); assay: S. cerevisiae central disc test, oxidative damage, strain Cat1∆; assay type: cell-based, Saccharomyces cerevisiae; conditions: 10 mM, positive control
Description: as §1

[6] = tested on: S. cerevisiae EG (Sod1∆Cat1∆); assay: S. cerevisiae central disc test, oxidative damage, strain Sod1∆Cat1∆; assay type: cell-based, Saccharomyces cerevisiae; conditions: 10 mM, positive control
Description: as §1

mouse erythrocytes = assay: Hemolytic activity in mice erythrocytes; assay type: cell-based; conditions: 37°C, 2 h
Method: This test was performed on adult Swiss albino mouse (Mus musculus) erythrocytes. The mouse was collected from the Central Animal House of the Federal University of Piaui, Brazil. It was allowed free access to standard food and water ad libitum and was kept under controlled lighting (12 h dark/light cycles) at 24 ± 2°C. Blood was collected from the retro-orbital plexus of the mouse (male, 24 gm body weight). Hemolytic activity in mouse erythrocytes was performed, according to Jamialahmadi et al..

Row | Compound | oxidative damage [1] | oxidative damage [2] | oxidative damage [3] | oxidative damage [4] | oxidative damage [5] | oxidative damage [6] | Hemolysis (%) (mouse erythrocytes; 31.25 μg/mL) | Hemolysis (%) (mouse erythrocytes; 62.5 μg/mL) | Hemolysis (%) (mouse erythrocytes; 125 μg/mL) | Hemolysis (%) (mouse erythrocytes; 250 μg/mL) | Hemolysis (%) (mouse erythrocytes; 500 μg/mL)
1 | OO [H2O2, hydrogen peroxide, reference compound] | 30.75 ± 5.0^∗∗ | 25.5 ± 4.2^∗∗ | 25.25 ± 6.18^∗∗ | 27.00 ± 5.09^∗∗ | 24.25 ± 4.03^∗∗ | 22.25 ± 4.57^∗∗ |  |  |  |  | 
2 | Triton X-100 [reference compound] |  |  |  |  |  |  | 100 ± 0.00^∗ % | 100 ± 0.00^∗ % | 100 ± 0.00^∗ % | 100 ± 0.00^∗ % | 100 ± 0.00^∗ %
